Assay results: US8309581B2, “Benzimidazole derivatives” (Hoffmann-La Roche Inc., priority 2009, dated 2012)

Molecular target: T1, FXR ligand binding domain (Homo sapiens, UniProt Q96RI1)
T1 construct: made in house; host or cells: E. coli BL21 (pLysS)
T1 sequence (Q96RI1 193-472 isoform Q96RI1-2): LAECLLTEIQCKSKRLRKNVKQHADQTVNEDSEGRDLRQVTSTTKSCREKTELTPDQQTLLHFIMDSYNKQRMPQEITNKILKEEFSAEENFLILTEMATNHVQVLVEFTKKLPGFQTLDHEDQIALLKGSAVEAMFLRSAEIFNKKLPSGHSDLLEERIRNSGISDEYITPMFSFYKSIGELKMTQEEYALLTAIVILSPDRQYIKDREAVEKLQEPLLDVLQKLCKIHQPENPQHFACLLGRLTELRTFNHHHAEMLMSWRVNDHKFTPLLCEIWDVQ
Assay: Radioligand Binding Assay (scintillation proximity radioligand displacement)
Details: GST-FXR LBD fusion protein on SPA beads, test compound 6×10^−9 M to 2.5×10^−5 M
Protocol: The following tests were carried out in order to determine the activity of the compounds of formula (I). Background information on the binding assay can be found in: Nichols J S et al. “Development of a scintillation proximity assay for peroxisome proliferator-activated receptor gamma ligand binding domain”, (1998) Anal. Biochem. 257: 112-119.
Bacterial and mammalian expression vectors were constructed to produce glutathione-s-transferase (GST) and Gal4 DNA binding domain (GAL) proteins fused to the ligand binding domain (LBD) of human FXR (aa 193-473). To accomplish this, the portions of the sequences encoding the FXR LBD were amplified by polymerase chain reaction (PCR) from a full-length clone by PCR and then subcloned into the plasmid vectors. The final clone was verified by DNA sequence analysis.
The induction, expression, and subsequent purification of GST-LBD fusion protein was performed in E. coli strain BL21 (pLysS) cells by standard methods (Current Protocols in Molecular Biology, Wiley Press, ed. Ausubel et al.).
Radioligand Binding Assay
Binding of test substances to the FXR ligand binding domain was assessed in a radioligand displacement assay. The assay was performed in a buffer consisting of 50 mM Hepes, pH 7.4, 10 mM NaCl, 5 mM MgCl2, 0.01% CHAPS. For each reaction well in a 96-well plate, 40 nM of GST-FXR LBD fusion protein was bound to […] glutathione ytrium silicate SPA beads (PharmaciaAmersham) in a final volume of […] by shaking. A radioligand (e.g., 20 nM of 2,N-dicyclohexyl-2-[2-(2,4 dimethoxy-phenyl)-benzoimidazol-1-yl]-acetamide) and test compounds were added, and scintillation proximity counting was performed. All binding assays were performed in 96-well plates and the amount of bound ligand was measured on a Packard TopCount using OptiPlates (Packard). Dose response curves were performed within a range of test compound concentrations from 6×10^−9 M to 2.5×10^−5 M and IC50 values were calculated.

Row | Compound | IC50
1 | O=C(O)CCCCCn1c(-c2ccc(Cl)cc2OCC2CCCC2)nc2cc(F)c(F)cc21 [Example 65, 6-[2-(4-Chloro-2-cyclopentylmethoxy-phenyl)-5,6-difluoro-benzoimidazol-1-yl]-hexanoic acid] | 3700 nM
2 | O=C(O)c1ccc(COc2ncccc2-c2nc3cc(F)c(F)cc3n2Cc2ccccc2)cc1 [Example 9, 4-[3-(1-Benzyl-5,6-difluoro-1H-benzoimidazol-2-yl)-pyridin-2-yloxymethyl]-benzoic acid] | 10500 nM
3 | O=C(O)COc1ccc(COc2cc(Cl)ccc2-c2nc3cc(F)c(F)cc3n2Cc2ccccc2)cc1 [Example 52, {4-[2-(1-Benzyl-5,6-difluoro-1H-benzoimidazol-2-yl)-5-chloro-phenoxymethyl]-phenoxy}-acetic acid] | 800 nM
4 | Fc1cc2nc(-c3ccc(Cl)cc3OCc3ccc(-c4nnn[nH]4)cc3F)n(CC3CCCCC3)c2cc1F [Example 32, 2-{4-Chloro-2-[2-fluoro-4-(1H-tetrazol-5-yl)-benzyloxy]-phenyl}-1-cyclohexylmethyl-5,6-difluoro-1H-benzoimidazole] | 10 nM
5 | O=C(O)C1CCC(COc2cc(Cl)ccc2-c2nc3cc(F)c(F)cc3n2CC2CCCCC2)CC1 (centres unmarked) [Example 29, 4-[5-Chloro-2-(1-cyclohexylmethyl-5,6-difluoro-1H-benzoimidazol-2-yl)-phenoxymethyl]-cyclohexane carboxylic acid] | 700 nM
6 | O=C(O)c1ccc(COc2ncccc2-c2nc3cc(F)c(F)cc3n2Cc2cccc(Cl)c2)cc1 [Example 14, 4-{3-[1-(3-Chloro-benzyl)-5,6-difluoro-1H-benzoimidazol-2-yl]-pyridin-2-yloxymethyl}-benzoic acid] | 5200 nM
7 | CC(C)(C)Cn1c(-c2ccc(Cl)cc2OCc2ccc(-c3nnn[nH]3)cc2F)nc2cc(F)c(F)cc21 [Example 46, 2-{4-Chloro-2-[2-fluoro-4-(1H-tetrazol-5-yl)-benzyloxy]-phenyl}-1-(2,2-dimethyl-propyl)-5,6-difluoro-1H-benzoimidazole] | 400 nM
8 | O=C(O)CCc1ccc(Cn2c(-c3ccc(Cl)cc3OCc3ccccc3Cl)nc3cc(F)c(F)cc32)cc1 [Example 58, 3-(4-{2-[4-Chloro-2-(2-chloro-benzyloxy)-phenyl]-5,6-difluoro-benzoimidazol-1-ylmethyl}-phenyl)-propionic acid] | 30 nM
9 | Fc1cc(-c2nnn[nH]2)ccc1COc1cc(Cl)ccc1-c1nc2ccccc2n1CC1CCCCC1 [Example 39, 2-{4-Chloro-2-[2-fluoro-4-(1H-tetrazol-5-yl)-benzyloxy]-phenyl}-1-cyclohexylmethyl-1H-benzoimidazole] | 30 nM
10 | O=C(Nc1cc(Cl)ccc1-c1nc2cc(F)c(F)cc2n1CC1CCCCC1)c1ccc(-c2nnn[nH]2)c(F)c1 [Example 85, N-[5-Chloro-2-(1-cyclohexylmethyl-5,6-difluoro-1H-benzoimidazol-2-yl)-phenyl]-3-fluoro-4-(1H-tetrazol-5-yl)-benzamide] | 0.6 nM
11 | Fc1cc2nc(-c3ccc(Cl)cc3OCC3CCCC3)n(Cc3ccc(-c4nnn[nH]4)cc3)c2cc1F [Example 68, 2-(4-Chloro-2-cyclopentylmethoxy-phenyl)-5,6-difluoro-1-[4-(1H-tetrazol-5-yl)-benzyl]-1H-benzoimidazole] | 40 nM
12 | Fc1cc2nc(-c3ccc(Cl)cc3OCC3CC3)n(CC3CCCCC3)c2cc1F [Example 21, 2-(4-Chloro-2-cyclopropylmethoxy-phenyl)-1-cyclohexylmethyl-5,6-difluoro-1H-benzoimidazole] | 300 nM
13 | Fc1cc2nc(-c3ccc(Cl)cc3OCc3ccc(-c4nnn[nH]4)cc3F)n(CC3CCCCO3)c2cc1F (centres unmarked) [Example 45, 2-{4-Chloro-2-[2-fluoro-4-(1H-tetrazol-5-yl)-benzyloxy]-phenyl}-5,6-difluoro-1-(tetrahydro-pyran-2-ylmethyl)-1H-benzoimidazole] | 100 nM
14 | O=C(O)CCCCCOc1cc(Cl)ccc1-c1nc2cc(F)c(F)cc2n1CC1CCCCC1 [Example 26, 6-[5-Chloro-2-(1-cyclohexylmethyl-5,6-difluoro-1H-benzoimidazol-2-yl)-phenoxy]-hexanoic acid] | 2100 nM
15 | O=C(O)COc1ccc(COc2ncccc2-c2nc3cc(F)c(F)cc3n2CC2CCCCC2)cc1 [Example 5, {4-[3-(1-Cyclohexylmethyl-5,6-difluoro-1H-benzoimidazol-2-yl)-pyridin-2-yloxymethyl]-phenoxy}-acetic acid] | 12100 nM
16 | Fc1cc2nc(-c3ccccc3CCc3ccc(-c4nnn[nH]4)cc3)n(CC3CCCCC3)c2cc1F [Example 76, 1-Cyclohexylmethyl-5,6-difluoro-2-(2-{2-[4-(1H-tetrazol-5-yl)-phenyl]-ethyl}-phenyl)-1H-benzoimidazole] | 100 nM
17 | Fc1cc2nc(-c3ccc(Cl)cc3OCC3CCCC3)n(Cc3ccc(-c4nnn[nH]4)cc3F)c2cc1F [Example 70, 2-(4-Chloro-2-cyclopentylmethoxy-phenyl)-5,6-difluoro-1-[2-fluoro-4-(1H-tetrazol-5-yl)-benzyl]-1H-benzoimidazole] | 10 nM
18 | Fc1cc2nc(-c3ccc(Cl)cc3OCC3CCCC3)n(Cc3ccc(-c4nnn[nH]4)c(F)c3)c2cc1F [Example 69, 2-(4-Chloro-2-cyclopentylmethoxy-phenyl)-5,6-difluoro-1-[3-fluoro-4-(1H-tetrazol-5-yl)-benzyl]-1H-benzoimidazole] | 80 nM
19 | Fc1cc2nc(-c3ccc(Cl)cc3OCC3CCCCC3)n(Cc3ccc(-c4nnn[nH]4)cc3F)c2cc1F [Example 87, 2-(4-Chloro-2-cyclohexylmethoxy-phenyl)-5,6-difluoro-1-[2-fluoro-4-(1H-tetrazol-5-yl)-benzyl]-1H-benzoimidazole] | 20 nM
20 | Fc1cc2nc(-c3cccnc3OCc3ccccc3Cl)n(Cc3ccccc3)c2cc1F [Example 6, 1-Benzyl-2-[2-(2-chloro-benzyloxy)-pyridin-3-yl]-5,6-difluoro-1H-benzoimidazole] | 1800 nM
21 | Fc1cc2nc(-c3ccc(Cl)cc3OCc3ccc(-c4nnn[nH]4)cc3)n(CC3CCCCC3)c2cc1F [Example 31, 2-{4-Chloro-2-[4-(1H-tetrazol-5-yl)-benzyloxy]-phenyl}-1-cyclohexylmethyl-5,6-difluoro-1H-benzoimidazole] | 50 nM
22 | O=C(O)COc1ccc(COc2ncccc2-c2nc3cc(F)c(F)cc3n2Cc2cccc(Cl)c2)cc1 [Example 15, (4-{3-[1-(3-Chloro-benzyl)-5,6-difluoro-1H-benzoimidazol-2-yl]-pyridin-2-yloxymethyl}-phenoxy)-acetic acid] | 2600 nM
23 | CCCCCn1c(-c2ccc(Cl)cc2OCc2ccc(-c3nnn[nH]3)cc2F)nc2cc(F)c(F)cc21 [Example 44, 2-{4-Chloro-2-[2-fluoro-4-(1H-tetrazol-5-yl)-benzyloxy]-phenyl}-5,6-difluoro-1-pentyl-1H-benzoimidazole] | 100 nM
24 | O=C(O)COc1ccc(Cn2c(-c3ccc(Cl)cc3OCC3CCCC3)nc3cc(F)c(F)cc32)cc1 [Example 64, {4-[2-(4-Chloro-2-cyclopentylmethoxy-phenyl)-5,6-difluoro-benzoimidazol-1-ylmethyl]-phenoxy}-acetic acid] | 200 nM
25 | O=C(O)Cc1ccc(Cn2c(-c3ccc(Cl)cc3OCC3CCCC3)nc3cc(F)c(F)cc32)cc1 [Example 63, {4-[2-(4-Chloro-2-cyclopentylmethoxy-phenyl)-5,6-difluoro-benzoimidazol-1-ylmethyl]-phenyl}-acetic acid] | 700 nM
26 | Fc1cc2nc(-c3cccnc3OCC3CC3)n(CC3CCCCC3)c2cc1F [Example 2, 1-Cyclohexylmethyl-2-(2-cyclopropylmethoxy-pyridin-3-yl)-5,6-difluoro-1H-benzoimidazole] | 2900 nM
27 | Fc1cc2nc(-c3ccc(Cl)cc3OCC3CCCC3)n(Cc3cccc(Cl)c3)c2cc1F [Example 54, 1-(3-Chloro-benzyl)-2-(4-chloro-2-cyclopentylmethoxy-phenyl)-5,6-difluoro-1H-benzoimidazole] | 1200 nM
28 | CCC(CC)COc1cc(Cl)ccc1-c1nc2cc(F)c(F)cc2n1Cc1ccc(-c2nnn[nH]2)cc1F [Example 88, 2-[4-Chloro-2-(2-ethyl-butoxy)-phenyl]-5,6-difluoro-1-[2-fluoro-4-(1H-tetrazol-5-yl)-benzyl]-1H-benzoimidazole] | 10 nM
29 | Fc1cc(-c2nnn[nH]2)ccc1Cn1c(-c2ccc(Cl)cc2OCC2CCCC2)nc2ccccc21 [Example 95, 2-(4-Chloro-2-cyclopentylmethoxy-phenyl)-1-[2-fluoro-4-(1H-tetrazol-5-yl)-benzyl]-1H-benzoimidazole] | 10 nM
